Patent publication US7838288B2, “Modulators of odorant receptors” (Duke University, priority 2004, dated 2010)

Columns and labels:
[1] = system: Eight other ORs located near the IVA locus; assay: Luciferase assay, other ORs near the IVA locus; format: cell-based
Excerpt: In experiments conducted during the course of the present invention, not only three class I ORs (S46, MOR23-1, MOR31-4) but also MOR203-1, a class II OR, responded to nonanoic acid. The present invention is not limited to a particular mechanism. Indeed, an understanding of the mechanism is not necessary to practice the present invention. […] Olfr62 is one of the closely related ORs located near or at the IVA locus, implicated in isovaleric acid sensation (see, e.g., Griff, I. C., and Reed, R. R. (1995) Cell 83, 407-414; Zhang, X., and Firestein, S. (2002) Nat Neurosci 5, 124-133; each herein incorporated by reference in their entireties). […] The present invention is not limited to a particular mechanism. Indeed, an understanding of the mechanism is not necessary to practice the present invention.
Dual-Glo system (Promega) for luciferase assay was used. CRE-Luciferase (Stratagene) was used to measure the receptor activities. Renilla luciferase driven by constitutively active SV40 promoter (pRL-SV40: Promega) was used as an internal control. […] Luminescence was measured using Wallac Victor 1420 (Perkin-Elmer). Normalized luciferase activity was calculated as [Luc (N)-Luc (0)]/RL (N), where Luc (N)=Luminescent count of a certain well, Luc (0)=Luminescent count without odorant for each OR, and RL (N)=Luminescent count of Renilla Luciferase of each well. […]

olfr62 = assay: CRE-luciferase reporter gene assay, olfr62; format: cell-based, mouse; conditions: Hana3A cells
Procedure: Four ORs (S6/79, S18, S46 and S50) previously assayed using other techniques (see, e.g., Malnic, B., et al. (1999) Cell 96, 713-723; herein incorporated by reference in its entirety) were tested against an assay panel of aliphatic alcohols, aldehydes and acids and some other odorants. Additionally, five “orphan” class I ORs (MOR23-1, MOR31-4, MOR31-6, MOR32-5 and MOR32-11) whose cognate ligands were unknown were tested. At a suprathreshold concentration of 100 uM, all these ORs were odorant selective, responding to only a small subset of the odorants tested (see FIG. 11A). This specificity was retained at lower, more physiologically relevant concentrations. Many of these ORs responded to odorants present in micromolar concentrations. The cell-surface expression of these ORs by living-cell immunofluorescence were evaluated. Some ORs (S18, MOR31-4, MOR31-6 and MOR32-5) were strongly expressed while other ORs (S6, S50, MOR23-1, MOR32-11) were weakly expressed (see FIG. 12). The present invention is not limited to a particular mechanism. Indeed, an understanding of the mechanism is not necessary to practice the present invention. […] Finally, two additional orphan class II ORs, MOR203-1 and olfr62, were tested against a panel of 139 odorants. […] Olfr62 responded to coumarine and piperonal (see FIG. 11C). […] When parental 293T cells for these ORs were used in this luciferase assay, little or no response to the odorants was observed. The present invention is not limited to a particular mechanism. Indeed, an understanding of the mechanism is not necessary to practice the present invention.
Dual-Glo system (Promega) for luciferase assay was used. CRE-Luciferase (Stratagene) was used to measure the receptor activities. Renilla luciferase driven by constitutively active SV40 promoter (pRL-SV40: Promega) was used as an internal control. Cells were plated on poly-D-lysine coated 96 well plates (BIOCOAT, Beckton Dickinson). After 8 hours (for experiments shown in FIGS. 8B and 8C) or 12 hours (for experiments shown in FIG. 8D and FIG. 11) after transfection, the medium was replaced with CD293 chemically defined medium (Invitrogen) and the plates were incubated for one hour at 37 degrees C. The medium was replaced with 50 ul of odorant solutions dissolved in CD293 and incubated for 10 hours (for experiments shown in FIGS. 8B and 8C) or 4 hours (for experiments shown in FIG. 8D and FIG. 11) at 37 degrees C. The manufacture's protocol for measuring luciferase and Renilla luciferase activities was followed. Luminescence was measured using Wallac Victor 1420 (Perkin-Elmer). Normalized luciferase activity was calculated as [Luc (N)-Luc (0)]/RL (N), where Luc (N)=Luminescent count of a certain well, Luc (0)=Luminescent count without odorant for each OR, and RL (N)=Luminescent count of Renilla Luciferase of each well. For cAMP assays, cells were plated onto 24-well plate. […]. Prism software (Graphpad) was used for data analysis. […]

response of eight other ORs near the IVA locus to odorant [1]: none of them responded
response of olfr62 to odorant (luciferase) (olfr62): did not respond
Compound: CC(C)CC(=O)O [isovaleric acid, Isovaleric acid]
